Test results from EP4786487A1, “PEPTIDE” (Peptidream Inc, priority 2023, dated 2025).
Positions of bridges follow the written chain, without caps; N, C: chain ends. Non-standard residues stand in square brackets, D forms with d. Residues, ends and D or L forms follow the SMILES beside them. Phe(4-COOH) = N[C@@H](Cc1ccc(C(=O)O)cc1)C(=O)O; Trp(7-aza) = N[C@@H](Cc1c[nH]c2ncccc12)C(=O)O; 3Pal(6-NH2) = Nc1ccc(C[C@H](N)C(=O)O)cn1; Gly(N(CH2)3COOH) = O=C(O)CCCNCC(=O)O; NMeF = CN[C@@H](Cc1ccccc1)C(=O)O; 3Pal = N[C@@H](Cc1cccnc1)C(=O)O; 4Pal = N[C@@H](Cc1ccncc1)C(=O)O; NMeA = CN[C@@H](C)C(=O)O; Sar = CNCC(=O)O

Tests used:
GDF-11 = target: T1, GDF-11 (Homo sapiens, UniProt O95390); assay: HepG2 reporter gene assay, Evaluation Procedure (2): 2-concentrations assay, GDF-11 inhibition; type: cell-based; details: GDF-11 10 ng/mL; for inhibition at 0.03 µM: HepG2, peptide 30nM, read-out: GDF11 Inhibition 30nM; for inhibition at 0.1 µM: HepG2, peptide 100nM, read-out: GDF11 Inhibition 100nM
T1 construct: purchased R&D systems 1958-GD-G8/CF
T1 sequence (O95390 299-407): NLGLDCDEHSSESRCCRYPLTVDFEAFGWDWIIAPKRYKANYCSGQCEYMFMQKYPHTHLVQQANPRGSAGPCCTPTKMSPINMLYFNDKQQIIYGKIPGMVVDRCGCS
Description: (§1) The pGL3(CAGA)12-luc plasmid, namely a pGL3 vector (E1751, Promega) having a luciferase gene inserted downstream of a promoter sequence with 12 CAGA repeats attached, was transfected into HepG2 cell line (HB-8065, ATCC). The culture of HepG2 cell line (HB-8065, ATCC) was performed as in the Evaluation Procedure (1).
(§2) Myostatin (788-G8/CF, R&D systems) or GDF-11 (1958-GD-G8/CF, R&D systems) was added at a final concentration of 10 ng/mL. […] At this time, blank wells, in which neither myostatin, GDF-11, nor each peptide was added, were also prepared and incubated in a CO2 incubator (37°C, 5% CO2) for 20 to 24 hours.
(§3) The medium containing the cells was removed, and a mixture containing PBS (14190144, Thermo) and a chromogenic substrate One-Glo Luciferase Assay System (E6120, Promega) at a ratio of 1:1 was added to each well at 100 µL/well. This was stirred with a plate shaker for 5 min and transferred to a 384-well plate (3570, Corning) at a volume of 20 µL/well.
(§4) The plate was centrifuged at 1,000 × g for 1 min and the luminescence signal (700 nm luminescence) was measured using a plate reader (Envision 2104, PerkinElmer). Based on the measurement results, the inhibition rate at each peptide concentration was calculated. […]

Myostatin = target: T2, Myostatin (Homo sapiens, UniProt O14793); assay: HepG2 reporter gene assay, Evaluation Procedure (2): 2-concentrations assay, myostatin inhibition; type: cell-based; details: Myostatin 10 ng/mL, HepG2; for inhibition at 0.03 µM: peptide 30nM, read-out: Myostatin Inhibition 30nM; for inhibition at 0.1 µM: peptide 100nM, read-out: Myostatin Inhibition 100nM
T2 construct: active myostatin (also called mature myostatin) is a homodimer consisting of two C-terminal growth factor domains; purchased R&D systems 788-G8/CF
T2 sequence (O14793 267-375): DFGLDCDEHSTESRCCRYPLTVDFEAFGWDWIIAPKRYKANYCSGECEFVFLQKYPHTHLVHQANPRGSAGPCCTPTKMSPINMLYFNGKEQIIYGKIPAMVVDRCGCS
Description: as §1, §2, §3, §4

Row | SMILES | inhibition at 0.03 µM (GDF-11) [%] | inhibition at 0.1 µM (GDF-11) [%] | inhibition at 0.03 µM (Myostatin) [%] | inhibition at 0.1 µM (Myostatin) [%]
1 | CC[C@H](C)[C@@H]1NC(=O)[C@H](Cc2ccccc2)N(C)C(=O)[C@H](Cc2ccc(O)cc2)NC(=O)[C@H](Cc2c[nH]c3ccccc23)NC(=O)[C@H](C)NC(=O)CN(CCCC(=O)O)C(=O)CSC[C@H](C(N)=O)NC(=O)[C@H](Cc2ccccc2)N(C)C(=O)[C@H](C)N(C)C(=O)[C@H](CC(C)C)NC(=O)[C@H](Cc2ccccc2)N(C)C(=O)[C@H](CCCNC(=N)N)NC(=O)[C@H](Cc2ccncc2)NC(=O)[C@H](Cc2ccc(O)cc2)NC(=O)CN(C)C1=O [Myostatin_99_Variant_17] ({CH2CO}-[Gly(N(CH2)3COOH)]AWY[NMeF]I[Sar]Y[4Pal]R[NMeF]L[NMeA][NMeF][dC]-NH2; thioether N-15) | 0 | 14 | 37 | 72
2 | CC[C@H](C)[C@@H]1NC(=O)[C@H](Cc2ccccc2)N(C)C(=O)[C@H](Cc2ccc(O)cc2)NC(=O)[C@H](Cc2c[nH]c3ccccc23)NC(=O)[C@H](C)NC(=O)CN(CCCC(=O)O)C(=O)CSC[C@H](C(N)=O)NC(=O)[C@H](Cc2ccccc2)N(C)C(=O)[C@H](C)N(C)C(=O)[C@H](CC(C)C)NC(=O)[C@H](Cc2ccccc2)N(C)C(=O)[C@H](CCCNC(=N)N)NC(=O)[C@H](Cc2ccc(C(=O)O)cc2)NC(=O)[C@H](Cc2ccncc2)NC(=O)CN(C)C1=O [Myostatin_99_Variant_18] ({CH2CO}-[Gly(N(CH2)3COOH)]AWY[NMeF]I[Sar][4Pal][Phe(4-COOH)]R[NMeF]L[NMeA][NMeF][dC]-NH2; thioether N-15) | 0 | 0 | 56 | 80
3 | CC[C@H](C)[C@@H]1NC(=O)[C@H](Cc2ccccc2)N(C)C(=O)[C@H](Cc2ccc(O)cc2)NC(=O)[C@H](Cc2c[nH]c3ncccc23)NC(=O)[C@H](C)NC(=O)CN(CCCC(=O)O)C(=O)CSC[C@H](C(N)=O)NC(=O)[C@H](Cc2ccccc2)N(C)C(=O)[C@H](C)N(C)C(=O)[C@H](CC(C)C)NC(=O)[C@H](Cc2ccccc2)N(C)C(=O)[C@H](CCCNC(=N)N)NC(=O)[C@H](Cc2ccc(C(=O)O)cc2)NC(=O)[C@H](Cc2ccccc2)NC(=O)CN(C)C1=O [Myostatin_99_Variant_20] ({CH2CO}-[Gly(N(CH2)3COOH)]A[Trp(7-aza)]Y[NMeF]I[Sar]F[Phe(4-COOH)]R[NMeF]L[NMeA][NMeF][dC]-NH2; thioether N-15) | 0 | 0 | 62 | 89
4 | CC[C@H](C)[C@@H]1NC(=O)[C@H](Cc2ccccc2)N(C)C(=O)[C@H](Cc2ccc(O)cc2)NC(=O)[C@H](Cc2c[nH]c3ncccc23)NC(=O)[C@H](C)NC(=O)CN(CCCC(=O)O)C(=O)CSC[C@H](C(N)=O)NC(=O)[C@H](Cc2ccccc2)N(C)C(=O)[C@H](C)N(C)C(=O)[C@H](CC(C)C)NC(=O)[C@H](Cc2ccccc2)N(C)C(=O)[C@H](CCCNC(=N)N)NC(=O)[C@H](Cc2ccc(C(=O)O)cc2)NC(=O)[C@H](Cc2ccncc2)NC(=O)CN(C)C1=O [Myostatin_99_Variant_21] ({CH2CO}-[Gly(N(CH2)3COOH)]A[Trp(7-aza)]Y[NMeF]I[Sar][4Pal][Phe(4-COOH)]R[NMeF]L[NMeA][NMeF][dC]-NH2; thioether N-15) | 0 | 0 | 40 | 76
5 | CC[C@H](C)[C@@H]1NC(=O)[C@H](Cc2ccccc2)N(C)C(=O)[C@H](Cc2ccc(O)cc2)NC(=O)[C@H](Cc2c[nH]c3ncccc23)NC(=O)[C@H](C)NC(=O)CN(CCCC(=O)O)C(=O)CSC[C@H](C(N)=O)NC(=O)[C@H](Cc2ccccc2)N(C)C(=O)[C@H](C)N(C)C(=O)[C@H](CC(C)C)NC(=O)[C@H](Cc2ccccc2)N(C)C(=O)[C@H](CCCNC(=N)N)NC(=O)[C@H](Cc2cccnc2)NC(=O)[C@H](Cc2ccccc2)NC(=O)CN(C)C1=O [Myostatin_99_Variant_22] ({CH2CO}-[Gly(N(CH2)3COOH)]A[Trp(7-aza)]Y[NMeF]I[Sar]F[3Pal]R[NMeF]L[NMeA][NMeF][dC]-NH2; thioether N-15) | 0 | 0 | 45 | 72
6 | CC[C@H](C)[C@@H]1NC(=O)[C@H](Cc2ccccc2)N(C)C(=O)[C@H](Cc2ccc(O)cc2)NC(=O)[C@H](Cc2c[nH]c3ccccc23)NC(=O)[C@H](C)NC(=O)CN(CCCC(=O)O)C(=O)CSC[C@H](C(N)=O)NC(=O)[C@H](Cc2ccccc2)N(C)C(=O)[C@H](C)N(C)C(=O)[C@H](CC(C)C)NC(=O)[C@H](Cc2ccccc2)N(C)C(=O)[C@H](CCCNC(=N)N)NC(=O)[C@H](Cc2cccnc2)NC(=O)[C@H](Cc2ccncc2)NC(=O)CN(C)C1=O [Myostatin_99_Variant_23] ({CH2CO}-[Gly(N(CH2)3COOH)]AWY[NMeF]I[Sar][4Pal][3Pal]R[NMeF]L[NMeA][NMeF][dC]-NH2; thioether N-15) | 0 | 0 | 32 | 71
7 | CC[C@H](C)[C@@H]1NC(=O)[C@H](Cc2ccccc2)N(C)C(=O)[C@H](Cc2ccc(N)nc2)NC(=O)[C@H](Cc2c[nH]c3ncccc23)NC(=O)[C@H](C)NC(=O)CN(CCCC(=O)O)C(=O)CSC[C@H](C(N)=O)NC(=O)[C@H](Cc2ccccc2)N(C)C(=O)[C@H](C)N(C)C(=O)[C@H](CC(C)C)NC(=O)[C@H](Cc2ccccc2)N(C)C(=O)[C@H](CCCNC(=N)N)NC(=O)[C@H](Cc2ccc(C(=O)O)cc2)NC(=O)[C@H](Cc2ccccc2)NC(=O)CN(C)C1=O [Myostatin_99_Variant_24] ({CH2CO}-[Gly(N(CH2)3COOH)]A[Trp(7-aza)][3Pal(6-NH2)][NMeF]I[Sar]F[Phe(4-COOH)]R[NMeF]L[NMeA][NMeF][dC]-NH2; thioether N-15) | 0 | 0 | 1 | 54
8 | CC[C@H](C)[C@@H]1NC(=O)[C@H](Cc2ccccc2)N(C)C(=O)[C@H](Cc2ccc(N)nc2)NC(=O)[C@H](Cc2c[nH]c3ccccc23)NC(=O)[C@H](C)NC(=O)CN(CCCC(=O)O)C(=O)CSC[C@H](C(N)=O)NC(=O)[C@H](Cc2ccccc2)N(C)C(=O)[C@H](C)N(C)C(=O)[C@H](CC(C)C)NC(=O)[C@H](Cc2ccccc2)N(C)C(=O)[C@H](CCCNC(=N)N)NC(=O)[C@H](Cc2ccc(C(=O)O)cc2)NC(=O)[C@H](Cc2ccncc2)NC(=O)CN(C)C1=O [Myostatin_99_Variant_25] ({CH2CO}-[Gly(N(CH2)3COOH)]AW[3Pal(6-NH2)][NMeF]I[Sar][4Pal][Phe(4-COOH)]R[NMeF]L[NMeA][NMeF][dC]-NH2; thioether N-15) | 0 | 0 | 20 | 50
9 | CC[C@H](C)[C@@H]1NC(=O)[C@H](Cc2ccccc2)N(C)C(=O)[C@H](Cc2ccc(N)nc2)NC(=O)[C@H](Cc2c[nH]c3ccccc23)NC(=O)[C@H](C)NC(=O)CN(CCCC(=O)O)C(=O)CSC[C@H](C(N)=O)NC(=O)[C@H](Cc2ccccc2)N(C)C(=O)[C@H](C)N(C)C(=O)[C@H](CC(C)C)NC(=O)[C@H](Cc2ccccc2)N(C)C(=O)[C@H](CCCNC(=N)N)NC(=O)[C@H](Cc2cccnc2)NC(=O)[C@H](Cc2ccccc2)NC(=O)CN(C)C1=O [Myostatin_99_Variant_26] ({CH2CO}-[Gly(N(CH2)3COOH)]AW[3Pal(6-NH2)][NMeF]I[Sar]F[3Pal]R[NMeF]L[NMeA][NMeF][dC]-NH2; thioether N-15) | 0 | 0 | 26 | 50
